“And” between values parts separate entries of the source, which are not always exact repeats. Identical values can stand only once.
Tested on: P. cynomolgi sporozoites
Assay: Presumptive causal prophylactic test against P. cynomolgi in Rhesus monkey
Format: in vivo, Plasmodium cynomolgi
Settings: for protection compared with untreated control: oral 3 mg/kg, 3 mg/kg
Procedure: (e). Toxicity Study in Aotus monkey: Protocol: Two malaria double cured Aotus weighing 1027-695 grams respectively received single dose of 3 mg/kg orally of the two compounds 2b and 3e. The monkeys were weighed and pre-bleed for CBC and Chemistry (ALT, BUN, Creatinine) determination, and again three, seven and 15 days post treatment. Signs of toxicity such as anorexia, vomiting, diarrhea or behavior changes were recorded. […] (f). Antimalarial Activity against P. falciparum in Aotus monkey: Protocol: Six (6) malaria naive Aotus lemurinus lemurinus (weigh 787-978 grms) were divided into two groups of two Aotus each plus two controls (MN13177 male and MN 13153 male) and infected with 5×10^6 P. falciparum FVO malaria parasites with 1 ml of an appropriate dilution in RPMI media intravenously on the saphenous vein. When their parasitemia reached 5×10^4 parasites/ul, treatment was started. Giemsa-stained thick blood smears were prepared daily with a prick in the ear marginal vein and parasites enumerated by the Earle and Perez method. Group 1 Aotus received 3e at 1 mg/kg once a day×three days. Group 2 Aotus received 2b at 1 mg/kg once a day×three days. The monkeys were weight and pre-bled for CBC and Chemistry (ALT, BUN, Creatinine) determination, and on day 4 post-treatmetne (PT). Bleedings for Pk determinations were carried out on day 1 PT at time 0, 1 hr, 7:30 hr and 24 hr PT. Group 1 (receiving 3e) animals cleared the parasitemias on day 3 post treatment (PT) and remained negative up to 100 days PT. In group 2 (receiving 2b), one animal cleared on day 3 PT and the other one on day 4 PT remaining negative up to 100 days PT. […] (g). Antimalarial Activity against P. vivax in Aotus monkey: Protocol: Fourteen (14) P. falciparum cured Aotus l. lemurinus monkeys (male and female) (weight 700-925 grms) were infected intravenously with 5×10^6 parasites of the P. vivax AMRU-1 strain diluted in RPMI media obtained from a donor and divided into two larger groups of 6 monkeys each (Group I and Group II) (2 monkeys per dose level), that received 3e and 6 monkeys (2 monkeys per dose level) that received 2b daily at 0.5, 1.0 and 3 mg/kg/day for a total of 3 days. Two monkeys were left has untreated controls. Treatment started when parasitemia reached 5,000 parasites×cc/mm on day 6 PI. Daily food intake was documented. Daily Giemsa-stained thick blood smears were prepared from a prick in the marginal ear vein and parasites enumerated by the Earle and Perez method. The animals were weighed at weekly intervals. Blood samples for Pk determination were collected at the following time points as follows: Day 0: CBC and chemistry panel (ALT. Creatinine and BUN); Day 4: CBC and chemistry Panel. CBC and chemistry panels were done the day prior to first dose and 24 hours after last dose and at weekly intervals thereafter. […] The other monkeys received 1 and 3 mg/kg of 3e remained negative until day 100 PT. In Group II, all monkeys except for one that received 3 mg/kg of 2b failed treatment and were retreated on day 3 PT with 3e at either 0.25, 0.5 or 1 mg/kg for three days. In the monkeys that received re-treatment at 0.25 mg/kg, one cleared on day 4 PT but needed to be treated with Mefloquine on day 8 PT due to a low platelet count. The other animals that had not been cleared by day 6 PT were treated with Mefloquine. […] P. vivax is known to be very drug resistant to antifolates. (h). Presumptive Causal Prophylactic Test against P. cynomolgi in Rhesus monkey: Protocol:
(1). Type of study: This study is causal prophylactic test. Six Rhesus monkeys weighing 3-4 kg were randomized to 2 control animals and 2 groups of 2 experimental animals each.
(2). Donor monkey: A donor monkey was inoculated intravenously with 1.3 mL freshly-thawed frozen infected red blood cell. When the monkey developed gametocytemia, mosquito feedings were conducted on days 13 and 14 after inoculation. […]

SMILES	day of parasitemia development after sporozoite challenge (oral 1 mg/kg on days -1, 0, 1, control day 8)	day of parasitemia development after sporozoite challenge (oral 3 mg/kg on days -1, 0, 1, control day 8) [days]	protection compared with untreated control	comparative protection activity (P. cynomolgi)	day of parasitemia development after sporozoite challenge (oral 1 mg/kg on days -1, 0, 1, control day 8, listed as WR288830)
CC(=O)N(C(C)=O)c1nc(N(C(C)=O)C(C)=O)c2c(ccc3c2ccn3Cc2ccccc2C(F)(F)F)n1 [Compound 3e, 1,3-Bis(diacetylamino)-7-(2-trifluoromethyl)benzyl-7H-pyrrolo[3,2-f]quinazoline]	8 days and 11 days	15	7 days		
CCOC(=O)Nc1nc(NC(=O)OCC)c2c(ccc3c2ccn3Cc2ccccc2C(F)(F)F)n1 [Compound 2b]			8 days and 15 days	better protection activity than 3e	9 days and 15 days

Source: US7253177B2, “Synthesis and antimalarial activity of pyrrolo[3,2-f]quinazoline-1,3-diamine derivatives” (United States of America as Represented by the Secretary of …, priority 2004, dated 2007)
